Assay [1] concerns the target T1, Inactive N-terminal His6 tagged murine P38 (Mus musculus, UniProt P47811).
T1 construct: His6 (N); made in house
Description: p38 cascade assay (HTRF; inactive p38 activated by MKK-6, ATF-2 phosphorylation). It counts as biochemical. Conditions: inactive p38 preincubated with compound, then MKK-6, ATF-2, ATP; read-out: 50% inhibition in the p38 cascade assay at concentrations within the range. On the procedure:
The homogeneous time resolved fluorescence method (HTRF) assay measured the phosphorylation of human activating transcription factor (ATF)-2 protein by P38 following activation by MKK-6 and was run in A384 well plate format. […] MBP-tagged mouse MKK-6 (final concentration 50 nM), GST-tagged ATF-2 (fmal concentration 200 nM) and ATP (final concentration 50 μM) were then added and the incubation continued for 90 min. p38, MKK-6 and ATF-2 were prepared in the Protein Production Group, Aventis Pharmaceuticals. XL665 labeled anti-GST antibody (Cis Bio International) and cryptate labeled anti-pbospho-ATF2 antibody (Cis Bio International) were then added to generate the specific signal proportional to the phosphorylation of the substrate. The close proximity of XL665 labeled anti-GST antibody/phosphorylated GST-ATF2 complex and the cryptate labeled anti-phospho-ATF2 antibody results in a fluorescence transfer from cryptate to XL665. The resulting fluorescence signal was than read on a LJL Acquest set at multi-method mode using a fluorescence filter set (E=360 nm, Em=615/665 nm) with UV dichroic mirror (Integration time: 300000 μs). The results are reported as IC50 values. Compounds were tested over the concentration range of 3×10^−10M to 3×10^−5M.
Background: Time-resolved FRET reads energy transfer from a long-lived donor to a nearby acceptor.

Assay [2] relates to TNF-alpha release in THP-1 cells. Description: LPS-induced TNF-alpha release in THP-1 cells. It counts as cell-based. Conditions: Homo sapiens, THP-1, LPS-stimulated THP-1 cells; read-out: 50% inhibition in the LPS-induced TNF-alpha release in THP-1 cells assay at concentrations within the range. The method, boiled down: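 TNF-alpha in supernatants was quantified by sandwich ELISA against a log/log recombinant standard curve (0.125-16 ng/ml). Before this, THP-1 cells (1×10^6 cells/ml, serum-reduced) received compound at 1×10^−9 to 1×10^−6 M in 0.3% DMSO for 1 h, then LPS 20 μg/ml for 18 h.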

T1 sequence (P47811 whole entry): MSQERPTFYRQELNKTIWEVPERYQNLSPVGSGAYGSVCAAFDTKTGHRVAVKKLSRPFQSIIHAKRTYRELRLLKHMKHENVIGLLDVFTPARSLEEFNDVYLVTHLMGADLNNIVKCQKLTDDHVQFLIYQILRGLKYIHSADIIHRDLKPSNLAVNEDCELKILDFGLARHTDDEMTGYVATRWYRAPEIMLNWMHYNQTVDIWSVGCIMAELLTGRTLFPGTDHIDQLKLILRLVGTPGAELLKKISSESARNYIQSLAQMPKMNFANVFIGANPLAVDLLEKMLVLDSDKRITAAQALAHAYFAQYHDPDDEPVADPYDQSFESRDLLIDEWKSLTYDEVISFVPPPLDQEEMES

Regarding `Cc1ccc(-n2nc(C(C)(C)C)cc2NC(=O)Nc2cccc(CC3CCN(C(=O)C4(C)CC4)CC3)c2)cc1` [Compound A16, 1-(5-tert-Butyl-2-p-tolyl-2H-pyrazol-3-yl)-3-{3-[1-(1-methyl-cyclopropanecarbonyl)-piperidin-4-ylmethyl]-phenyl}-urea], the IC50 fell in the range of 10 to 100 nM in assay [1] and 10 to 500 nM in assay [2]. On the same counts, the results for `Cc1ccc(-n2nc(C(C)(C)C)cc2NC(=O)Nc2cccc(CC3CCN(C(=O)c4sc(C)nc4C)CC3)c2)cc1` [Compound A28, 1-(5-tert-Butyl-2-p-tolyl-2H-pyrazol-3-yl)-3-{3-[1-(2,4-dimethyl-thiazole-5-carbonyl)-piperidin-4-ylmethyl]-phenyl}-urea] are 10 to 100 nM and 10 to 500 nM.

For `Cc1ccc(-n2nc(C(C)(C)C)cc2NC(=O)Nc2cccc(CC3CCN(C(=O)c4csc(-c5cccnc5)n4)CC3)c2)cc1` [Compound A32, 1-(5-tert-Butyl-2-p-tolyl-2H-pyrazol-3-yl)-3-{3-[1-(2-pyridin-3-yl-thiazole-4-carbonyl)-piperidin-4-ylmethyl]-phenyl}-urea], the IC50 lay within 10 to 100 nM in assay [1] and 10 to 500 nM in assay [2].

On to `Cc1ccc(-n2nc(C(C)(C)C)cc2NC(=O)Nc2cccc(CC3CCN(C(=O)c4csc(-c5ccncc5)n4)CC3)c2)cc1` [Compound A34, 1-(5-tert-Butyl-2-p-tolyl-2H-pyrazol-3-yl)-3-{3-[1-(2-pyridin-4-yl-thiazole-4-carbonyl)-piperidin-4-ylmethyl]-phenyl}-urea], for which the IC50 in assay [1] was 10 to 100 nM; in assay [2] it was 10 to 500 nM. As for `Cc1ccc(-n2nc(C(C)(C)C)cc2NC(=O)Nc2cccc(CC3CCN(C(=O)c4cccnc4Cl)CC3)c2)cc1` [Compound A42, 1-(5-tert-Butyl-2-p-tolyl-2H-pyrazol-3-yl)-3-{3-[1-(2-chloro-pyridine-3-carbonyl)-piperidin-4-ylmethyl]-phenyl}-urea], the IC50 in assay [1] lay in the range of 10 to 100 nM; in assay [2], 10 to 500 nM.

`COC(=O)CCC(=O)N1CCC(Cc2cccc(NC(=O)Nc3cc(C(C)(C)C)nn3-c3ccc(C)cc3)c2)CC1` [Compound A174, 4-(4-{3-[3-(5-tert-Butyl-2-p-tolyl-2H-pyrazol-3-yl)-ureido]-benzyl}-piperidin-1-yl)-4-oxo-butyric acid methyl ester]: in assay [1], the IC50 was in the range of 10 to 100 nM. On the same count and under the same terms, next, `Cc1ccc(-n2nc(C(C)(C)C)cc2NC(=O)Nc2ccc(CC3CCN(C(=O)c4ccc(O)nc4)CC3)cc2)cc1` [Compound A333, 1-(5-tert-Butyl-2-p-tolyl-2H-pyrazol-3-yl)-3-{4-[1-(6-hydroxy-pyridine-3-carbonyl)-piperidin-4-ylmethyl]-phenyl}-urea]: 10 to 100 nM; `Cc1ccc(-n2nc(C(C)(C)C)cc2NC(=O)Nc2ccc(CC3CCN(C(=O)c4coc5c4C(=O)CCC5)CC3)cc2)cc1` [Compound A342, 1-(5-tert-Butyl-2-p-tolyl-2H-pyrazol-3-yl)-3-{4-[1-(4-oxo-4,5,6,7-tetrahydro-benzofuran-3-carbonyl)-piperidin-4-ylmethyl]-phenyl}-urea]: 10 to 100 nM.

With `CC(=O)Nc1cccc(C(=O)N2C3CCC2CC(Cc2cccc(NC(=O)Nc4cc(C(C)(C)C)nn4-c4ccc(C)cc4)c2)C3)c1` (stereo not shown) [Compound A707, N-[3-(3-{3-[3-(5-tert-Butyl-2-p-tolyl-2H-pyrazol-3-yl)-ureido]-benzyl}-8-aza-bicyclo[3.2.1]octane-8-carbonyl)-phenyl]-acetamide], the IC50 in assay [1] was in the range of 10 to 100 nM. The same measure, in the same setting: the value for `Cc1ccc(-n2nc(C(C)(C)C)cc2NC(=O)Nc2cccc(CC3CC4CCC(C3)N4S(=O)(=O)c3ccc4c(c3)OCCN4C)c2)cc1` (stereo not shown) [Compound A880, 1-(5-tert-Butyl-2-p-tolyl-2H-pyrazol-3-yl)-3-{3-[8-(4-methyl-3,4-dihydro-2H-benzo[1,4]oxazine-7-sulfonyl)-8-aza-bicyclo[3.2.1]oct-3-ylmethyl]-phenyl}-urea] was 10 to 100 nM. In the case of `Cc1ccc(-n2nc(C(C)(C)C)cc2NC(=O)Nc2ccc(CC3CC4CCC(C3)N4C(=O)Cc3ccc(F)cc3F)cc2)cc1` (stereo not shown) [Compound A1364, 1-(5-tert-Butyl-2-p-tolyl-2H-pyrazol-3-yl)-3-(4-{8-[2-(2,4-difluoro-phenyl)-acetyl]-8-aza-bicyclo[3.2.1]oct-3-ylmethyl}-phenyl)-urea], the IC50 in assay [2] is 10 to 500 nM. Take `COc1ccccc1CC(=O)N1C2CCC1CC(Cc1ccc(NC(=O)Nc3cc(C(C)(C)C)nn3-c3ccc(C)cc3)cc1)C2` (stereo not shown) [Compound A1404, 1-(5-tert-Butyl-2-p-tolyl-2H-pyrazol-3-yl)-3-(4-{8-[2-(2-methoxy-phenyl)-acetyl]-8-aza-bicyclo[3.2.1]oct-3-ylmethyl}-phenyl)-urea]: in assay [2], the IC50 was in the range of 10 to 500 nM.

Regarding `COc1cc(N)c(Cl)cc1C(=O)N1C2CCC1CC(Cc1ccc(NC(=O)Nc3cc(C(C)(C)C)nn3-c3ccc(C)cc3)cc1)C2` (stereo not shown) [Compound A1441, 1-{4-[8-(4-Amino-5-chloro-2-methoxy-benzoyl)-8-aza-bicyclo[3.2.1]oct-3-ylmethyl]-phenyl}-3-(5-tert-butyl-2-p-tolyl-2H-pyrazol-3-yl)-urea], the IC50 in assay [2] lay in the range of 10 to 500 nM. Turning to `COc1ccc(OC(=O)N2CCC(Cc3ccc(NC(=O)Nc4cc(C(C)(C)C)nn4-c4ccc(C)cc4)cc3)CC2)cc1` [Compound A1605, 4-{4-[3-(5-tert-Butyl-2-p-tolyl-2H-pyrazol-3-yl)-ureido]-benzyl}-piperidine-1-carboxylic acid 4-methoxy-phenyl ester], in assay [1], the IC50 is 10 to 100 nM.

With `CC(=O)N1CCC(Cc2ccc(NC(=O)Nc3cc(C(C)(C)C)nn3-c3ccc(C)cc3)cc2)CC1` [Compound A1637, 1-[4-(1-acetyl-piperidin-4-ylmethyl)-phenyl]-3-(5-tert-butyl-2-p-tolyl-2H-pyrazol-3-yl)-urea], the IC50 in assay [1] is 10 to 100 nM.

In the case of `Cc1ccc(-n2nc(C(C)(C)C)cc2NC(=O)Nc2cccc(CC3CCN(C(=O)c4cc5ccccc5o4)CC3)c2)cc1` [Compound A1638, 1-{3-[1-(benzofuran-2-carbonyl)-piperidin-4-ylmethyl]-phenyl}-3-(5-tert-butyl-2-p-tolyl-2H-pyrazol-3-yl)-urea], in assay [1], the IC50 lay within 10 to 100 nM.

On to `Cc1ccc(-n2nc(C(C)(C)C)cc2NC(=O)Nc2cccc(CC3CCN(C(=O)C4CCNCC4)CC3)c2)cc1` [Compound A1639, 1-(5-tert-Butyl-2-p-tolyl-2H-pyrazol-3-yl)-3-{3-[1-(piperidine-4-carbonyl)-piperidin-4-ylmethyl]-phenyl}-urea], for which the IC50 in assay [1] fell in the range of 10 to 100 nM. Still for that read-out and setting: the value for `Cc1ccc(-n2nc(C(C)(C)C)cc2NC(=O)Nc2ccc(CC3CC4CCC(C3)N4C(=O)c3cccc(C)n3)cc2)cc1` (stereo not shown) [Compound A1640, 1-(5-tert-Butyl-2-p-tolyl-2H-pyrazol-3-yl)-3-{4-[8-(6-methyl-pyridine-2-carbonyl)-8-aza-bicyclo[3.2.1]oct-3-ylmethyl]-phenyl}-urea] was 10 to 100 nM; that for `CC(=O)C(=CC(=O)c1ccccc1)NC(=O)N1CCC(Cc2ccc(NC(=O)Nc3cc(C(C)(C)C)nn3-c3ccc(C)cc3)cc2)CC1` [Compound A1641, 4-{4-[3-(5-tert-Butyl-2-p-tolyl-2H-pyrazol-3-yl)-ureido]-benzyl}-piperidine-1-carboxylic acid (1-acetyl-3-oxo-3-phenyl-propenyl)-amide] was 10 to 100 nM.

For the compound `Cc1ccc(-n2nc(C(C)(C)C)cc2NC(=O)Nc2ccc(CC3CCN(C(=O)C4=Cc5occc5CC4)CC3)cc2)cc1` [Compound A1642, 1-(5-tert-Butyl-2-p-tolyl-2H-pyrazol-3-yl)-3-{4-[1-(4,5-dihydro-benzofuran-6-carbonyl)-piperidin-4-ylmethyl]-phenyl}-urea], in assay [2], the IC50 was 10 to 500 nM. With `Cc1ccc(-n2nc(C(C)(C)C)cc2NC(=O)Nc2ccc(CC3CCN(C(=O)O[C@@H]4C[C@H](C)CC[C@H]4C(C)C)CC3)cc2)cc1` [Compound A1644, 4-{4-[3-(5-tert-Butyl-2-p-tolyl-2H-pyrazol-3-yl)-ureido]-benzyl}-piperidin-1-carboxylic acid (1R,2S,5R)-2-isopropyl-5-methyl-cyclohexyl ester], in assay [1], the IC50 lay in the range of 10 to 100 nM. `COc1ccc(OC)c(CC(=O)N2CCC(Cc3cccc(NC(=O)Nc4cc(C(C)(C)C)nn4-c4ccc(C)cc4)c3)CC2)c1` [Compound A1646, 1-(5-tert-Butyl-2-p-tolyl-2H-pyrazol-3-yl)-3-(3-{1-[2-(2,5-dimethoxy-phenyl)-acetyl]-piperidin-4-ylmethyl}-phenyl)-urea]: in assay [2], the IC50 lay within 10 to 500 nM.

Regarding `COc1ccc(OC)c(C(=O)N2C3CCC2CC(Cc2ccc(NC(=O)Nc4cc(C(C)(C)C)nn4-c4ccc(C)cc4)cc2)C3)c1` (stereo not shown) [Compound A1647, 1-(5-tert-Butyl-2-p-tolyl-2H-pyrazol-3-yl)-3-{4-[8-(2,5-dimethoxy-benzoyl)-8-aza-bicyclo[3.2.1]oct-3-ylmethyl]-phenyl}-urea], the IC50 in assay [2] lay within 10 to 500 nM.
